Experimental data: patent US7812022B2 (GlaxoSmithKline LLC, priority 2004, dated 2010)

Assays:
[1] = system: BT474 and HN5 tumor cell lines; test: Methylene blue growth inhibition assay (cellular Method A); type: cell-based, Human; conditions: Homo sapiens, BT-474, 72 h, 3 days, read-out: Activity (Method): growth inhibition IC50 class
In short: (§1)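 Growth inhibition measured by methylene blue staining of biomass (OD 620) after 3 days' compound exposure at 37° C, final DMSO 0.3%. Cell lines: BT474 (10,000/well), HN5 (3,000/well) and Colo205, all in DMEM with 10% FBS; IC50 fitted by nonlinear regression against vehicle-treated wells.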

Colo205 tumor cell lines = test: Methylene blue growth inhibition assay (cellular Method A), Colo205; type: cell-based, Human; conditions: Homo sapiens, COLO 205, 72 h, 3 days, read-out: Activity (Method): growth inhibition IC50 class
In short: as §1

ErbB2 or EGFR = biological target: T1, ErbB2 or EGFR; test: ErbB family substrate phosphorylation enzyme assay (HTRF), Method A or Method B; type: biochemical
T1 construct: enzymes purified from a baculovirus expression system; Reagent production was conducted essentially as described in Brignola, P. S., et al, (2002) J. Biol. Chem. 277(2): 1576-1585
In short: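 Baculovirus-expressed EGFR or ErbB2 (0.8 or 10 nM in enzyme mix) phosphorylates biotinylated Peptide C with 20 µM ATP and 0.8 µM peptide (substrate-mix levels), MnCl2, pH 7.5. Reaction ran 90 min at 20 °C with EDTA stop and HTRF anti-phosphotyrosine read. Method A: enzyme added last; Method B: 1 h enzyme–compound preincubation.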

[2] = Method B: enzyme mix pre-incubated with compound 1 hour at 20° C., started with substrate mix
[3] = Method A: substrate mix added first, reaction started with enzyme mix

Row | SMILES | IC50 [1] [nM] | IC50 (Colo205 tumor cell lines) [nM] | Activity (Method): pIC50 class against ErbB2 or EGFR (ErbB2 or EGFR; [2]) | Activity (Method): pIC50 class against ErbB2 or EGFR (ErbB2 or EGFR; [3])
1 | Cn1cncc1C(=O)Nc1cccc(-c2nn3ccccc3c2-c2ccnc(Nc3cccc(F)c3)n2)c1 [Example 84, N-[3-(3-{2-[(3-fluorophenyl)amino]-4-pyrimidinyl}-pyrazolo[1,5-a]pyridin-2-yl)phenyl]-1-methyl-1H-imidazole-5-carboxamide] | > 1000 | > 1000 | +++ (B) (at least one pIC50 measurement of greater than 7 against either ErbB2 or EGFR) | 
2 | O=C(Nc1cccc(-c2nn3ccccc3c2-c2ccnc(Nc3ccc(OCCN4CCCC4=O)c(F)c3)n2)c1)c1c(F)cccc1F [Example 133, 2,6-Difluoro-N-[3-(3-{2-[(3-fluoro-4-{[2-(2-oxo-1-pyrrolidinyl)ethyl]oxy}phenyl)amino]-4-pyrimidinyl}pyrazolo[1,5-a]pyridin-2-yl)phenyl]benzamide] | < 100 | 100 to 1000 | +++ (B) (at least one pIC50 measurement of greater than 7 against either ErbB2 or EGFR) | 
3 | CN(C)CCOc1cccc(Nc2nccc(-c3c(-c4cccc(NC(=O)c5c(F)cccc5F)c4)nn4ccccc34)n2)c1 [Example 61, N-[3-(3-{2-[(3-{[2-(Dimethylamino)ethyl]oxy}-phenyl)amino]-4-pyrimidinyl}pyrazolo[1,5-a]pyridin-2-yl)phenyl]-2,6-difluorobenzamide] | < 100 | 100 to 1000 | +++ (B) (at least one pIC50 measurement of greater than 7 against either ErbB2 or EGFR) | 
4 | Cc1cccc2c(-c3ccnc(Nc4cccc(F)c4)n3)c(-c3cccc(NC(=O)c4c(F)cccc4F)c3)nn12 [Example 156, 2,6-Difluoro-N-[3-(3-{2-[(3-fluorophenyl)amino]-pyrimidin-4-yl}-7-methylpyrazolo[1,5-a]pyridin-2-yl)phenyl]benzamide] | 100 to 1000 | > 1000 |  | ++ (A) (at least one pIC50 measurement greater than 6 against either ErbB2 or EGFR but no measurement greater than pIC50 of 7)
5 | COc1cc(Nc2nccc(-c3c(-c4cccc(NC(=O)c5c(F)cccc5F)c4)nn4ccccc34)n2)cc(OC)c1OC [Example 120, 2,6-Difluoro-N-{3-[3-(2-{[3,4,5-tris(methyloxy)-phenyl]amino}-4-pyrimidinyl)pyrazolo[1,5-a]pyridin-2-yl]phenyl}benzamide] | 100 to 1000 | 100 to 1000 | +++ (B) (at least one pIC50 measurement of greater than 7 against either ErbB2 or EGFR) | 
6 | CN(C)CCCOc1ccc(Nc2nccc(-c3c(-c4cccc(NC(=O)c5c(F)cccc5F)c4)nn4ccccc34)n2)cc1Cl [Example 126, N-[3-(3-{2-[(3-Chloro-4-{[3-(dimethylamino)propyl]-oxy}phenyl)amino]-4-pyrimidinyl}pyrazolo[1,5-a]pyridin-2-yl)phenyl]-2,6-difluorobenzamide] | < 100 | 100 to 1000 | +++ (B) (at least one pIC50 measurement of greater than 7 against either ErbB2 or EGFR) | 
7 | O=C(Nc1cccc(-c2nn3ccccc3c2-c2ccnc(Nc3cccc(-c4cnco4)c3)n2)c1)c1cc(F)ccc1F [Example 44, 2,5-Difluoro-N-{3-[3-(2-{[3-(1,3-oxazol-5-yl)phenyl]amino}-4-pyrimidinyl)pyrazolo[1,5-a]pyridin-2-yl]phenyl}benzamide] | < 100 | 100 to 1000 |  | +++ (A) (at least one pIC50 measurement of greater than 7 against either ErbB2 or EGFR)
8 | CN1CCc2ccc(Nc3nccc(-c4c(-c5cccc(NC(=O)c6cc(F)ccc6F)c5)nn5ccccc45)n3)cc2C1 [Example 189, 2,5-Difluoro-N-[3-(3-{2-[(2-methyl-1,2,3,4-tetrahydro-7-isoquinolinyl)amino]-4-pyrimidinyl}pyrazolo[1,5-a]pyridin-2-yl)phenyl]benzamide] | < 100 | > 1000 | +++ (B) (at least one pIC50 measurement of greater than 7 against either ErbB2 or EGFR) | 
9 | O=C1COc2ccc(Nc3nccc(-c4c(-c5cccc(NC(=O)c6c(F)cccc6F)c5)nn5ccccc45)n3)cc2N1 [Example 197, 2,6-Difluoro-N-[3-(3-{2-[(3-oxo-3,4-dihydro-2H-1,4-benzoxazin-6-yl)amino]-4-pyrimidinyl}pyrazolo[1,5-a]pyridin-2-yl)phenyl]benzamide] | < 100 | 100 to 1000 | +++ (B) (at least one pIC50 measurement of greater than 7 against either ErbB2 or EGFR) | 
10 | CCN(CC)CCCOc1ccc(Nc2nccc(-c3c(-c4cccc(NC(=O)c5c(F)cccc5F)c4)nn4ccccc34)n2)cc1F [Example 131, N-[3-(3-{2-[(4-{[3-(Diethylamino)propyl]oxy}-3-fluorophenyl)amino]-4-pyrimidinyl}pyrazolo[1,5-a]pyridin-2-yl)phenyl]-2,6-difluorobenzamide] | < 100 | 100 to 1000 | +++ (B) (at least one pIC50 measurement of greater than 7 against either ErbB2 or EGFR) | 
11 | CN1CCN(Cc2cccc(Nc3nccc(-c4c(-c5cccc(NC(=O)c6c(F)cccc6F)c5)nn5ccccc45)n3)c2)CC1 [Example 57, 2,6-Difluoro-N-(3-{3-[2-({3-[(4-methyl-1-piperazinyl)-methyl]phenyl}amino)-4-pyrimidinyl]pyrazolo[1,5-a]pyridin-2-yl}phenyl)benzamide] | < 100 | 100 to 1000 | +++ (B) (at least one pIC50 measurement of greater than 7 against either ErbB2 or EGFR) | 
12 | O=C(Nc1cccc(-c2nn3ccccc3c2-c2ccnc(Nc3ccccc3)n2)c1)c1cc(F)ccc1F [Example 43, 2,5-Difluoro-N-(3-{3-[2-(phenylamino)-4-pyrimidinyl]pyrazolo[1,5-a]pyridin-2-yl}phenyl)benzamide] | 100 to 1000 | > 1000 |  | +++ (A) (at least one pIC50 measurement of greater than 7 against either ErbB2 or EGFR)
13 | O=C(Nc1cccc(-c2nn3ccccc3c2-c2ccnc(Nc3ccc(O)c(Cl)c3)n2)c1)c1c(F)cccc1F [Example 86, N-[3-(3-{2-[(3-Chloro-4-hydroxyphenyl)amino]-4-pyrimidinyl}pyrazolo[1,5-a]pyridin-2-yl)phenyl]-2,6-difluorobenzamide] | < 100 | > 1000 |  | +++ (A) (at least one pIC50 measurement of greater than 7 against either ErbB2 or EGFR)
14 | O=C(Nc1cccc(-c2nn3ccccc3c2-c2ccnc(Nc3ccc4c(c3)OCCO4)n2)c1)Nc1ccccc1Cl [Example 2, N-(2-Chlorophenyl)-N-(3-{3-[2-(2,3-dihydro-1,4-benzodioxin-6-ylamino)-4-pyrimidinyl]pyrazolo[1,5-a]pyridin-2-yl}phenyl)urea] | > 1000 | > 1000 |  | ++ (A) (at least one pIC50 measurement greater than 6 against either ErbB2 or EGFR but no measurement greater than pIC50 of 7)
15 | CN(C)Cc1ccc(Nc2nccc(-c3c(-c4cccc(NC(=O)c5c(F)cccc5F)c4)nn4ccccc34)n2)cc1 [Example 108, N-(3-{3-[2-({4-[(Dimethylamino)methyl]phenyl}-amino)-4-pyrimidinyl]pyrazolo[1,5-a]pyridin-2-yl}phenyl)-2,6-difluorobenzamide] | < 100 | < 100 | +++ (B) (at least one pIC50 measurement of greater than 7 against either ErbB2 or EGFR) | 
16 | CC(=O)Nc1cccc(Nc2nccc(-c3c(-c4cccc(NC(=O)c5cc(F)ccc5F)c4)nn4ccccc34)n2)c1 [Example 47, N-{3-[3-(2-{[3-(acetylamino)phenyl]amino}-4-pyrimidinyl)pyrazolo[1,5-a]pyridin-2-yl]phenyl}-2,5-difluorobenzamide] | 100 to 1000 | > 1000 |  | +++ (A) (at least one pIC50 measurement of greater than 7 against either ErbB2 or EGFR)
17 | COC(=O)CCCOc1ccc(Nc2nccc(-c3c(-c4cccc(NC(=O)c5c(F)cccc5F)c4)nn4ccccc34)n2)cc1Cl [Example 162, Methyl 4-{[2-chloro-4-({4-[2-(3-{[(2,6-difluorophenyl)carbonyl]-amino}phenyl)pyrazolo[1,5-a]pyridin-3-yl]-2-pyrimidinyl}amino)phenyl]oxy}-butanoate] | 100 to 1000 | 100 to 1000 | ++ (B) (at least one pIC50 measurement greater than 6 against either ErbB2 or EGFR but no measurement greater than pIC50 of 7) | 
18 | COc1cccc(Nc2nccc(-c3c(-c4cccc(NC(=O)c5c(F)cccc5F)c4)nn4ccccc34)n2)c1 [Example 28, 2,6-Difluoro-N-{3-[3-(2-{[3-(methyloxy)phenyl]-amino}-4-pyrimidinyl)pyrazolo[1,5-a]pyridin-2-yl]phenyl}benzamide] | < 100 | 100 to 1000 | +++ (B) (at least one pIC50 measurement of greater than 7 against either ErbB2 or EGFR) | 
